ChEMBL document CHEMBL4613239, “α-Glucosidase and Protein Tyrosine Phosphatase 1B Inhibitors from Malbranchea circinata” (J Nat Prod, 2020)
Activity calls are given as the source filed them. The rule behind the calls is not given here.

Key:
[1] = Inhibition of Saccharomyces cerevisiae alpha-glucosidase using pNPG as substrate preincubated for 10 mins followed by substrate addition after 20 mins
[2] = biological target: T1, Tyrosine-protein phosphatase non-receptor type 1 (Homo sapiens) (UniProt P18031); test: (§1) Inhibition of human PTP1B expressed in Escherichia coli BL21 (DE3) cells using PNPP as substate preincubated for 5 mins followed by substrate additon and measured after 15 mins
T1 sequence (whole entry): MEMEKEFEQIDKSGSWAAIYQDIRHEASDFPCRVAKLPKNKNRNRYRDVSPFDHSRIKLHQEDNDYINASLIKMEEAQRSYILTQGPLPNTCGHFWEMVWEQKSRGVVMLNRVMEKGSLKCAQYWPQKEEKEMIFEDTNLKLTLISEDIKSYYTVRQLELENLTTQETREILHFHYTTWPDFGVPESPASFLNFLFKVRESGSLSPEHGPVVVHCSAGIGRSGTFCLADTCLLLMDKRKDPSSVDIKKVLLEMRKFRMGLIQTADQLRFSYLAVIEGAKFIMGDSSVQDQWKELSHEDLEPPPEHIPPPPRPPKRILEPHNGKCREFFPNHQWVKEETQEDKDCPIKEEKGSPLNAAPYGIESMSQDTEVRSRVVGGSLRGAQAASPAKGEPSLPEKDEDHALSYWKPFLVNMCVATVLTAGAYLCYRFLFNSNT

[3] = Inhibition of rat intestinal rat alpha-glucosidase
[4] = biological target: T2, Tyrosine-protein phosphatase non-receptor type 1 (Homo sapiens, UniProt P18031); test: as §1
T2 sequence (P18031 whole entry): T1 sequence (whole entry)

Mus musculus = test: Induction of hypo glycemic activity in ICR mouse assessed as reduction in postprandial glucose level at 10 mg/kg, po pretreated for 30 mins followed by sucrose treatment and measured after 30 to 120 mins; assay type: functional, organism-based

| SMILES | IC50 [1] | inhibition [2] | IC50 [3] | IC50 [4] | Activity (Mus musculus) |
| --- | --- | --- | --- | --- | --- |
| Cc1cc(O)c2c(c1)C(=O)c1cc(O[C@H]3O[C@H](CO)[C@@H](O)[C@H]3O)cc(O)c1C2=O | 261 µM | Active | – | – | – |
| CC(=O)O[C@H]1[C@@H](O)[C@@H](Oc2cccc3c2C(=O)c2c(O)cc(C)cc2C3=O)O[C@@H]1CO | – | Active | – | – | – |
| C=CC(C)(C)[C@@]12C[C@@H]3C(=O)N4[C@H](C[C@@]5(C(C)(C)C=C)c6ccccc6N[C@@H]45)C(=O)N3[C@@H]1Nc1ccccc12 | 57.4 µM | – | 743 µM | 15.3 µM | – |
| COC1CCC(=O)c2c(O)c(-c3cc(O)c4c(c3O)C(=O)CCC4OC)cc(O)c21 (stereo unspecified) | – | – | – | 10.9 µM | – |
| O=C1Nc2ccccc2-c2nc3ccccc3c(=O)n2-c2c(O)cccc21 | 117 µM | Active | – | – | – |
| CC(C)=CCc1ccc(O)c2c(=O)c3c(O)cc(C)c(O)c3oc12 | – | – | – | 13.9 µM | – |
| CC(=O)OC[C@H]1O[C@H](Oc2cc(O)c3c(c2)C(=O)c2cc(C)cc(O)c2C3=O)[C@H](OC(C)=O)[C@@H]1OC(C)=O | – | Active | – | – | – |
| CC1(C)c2[nH]c3cc(Cl)c(Cl)cc3c2C[C@@]23CN4CCC[C@]4(C[C@@H]12)C(=O)N3 | 71.3 µM | – | 459 µM | 14.5 µM | Active |
| O=C1Nc2ccccc2-c2nc3ccccc3c(=O)n2-c2ccccc21 | 144 µM | Active | – | – | – |
| CC(=O)O[C@H]1[C@@H](Oc2cc(O)c3c(c2)C(=O)c2cc(C)cc(O)c2C3=O)O[C@H](CO)[C@H]1OC(C)=O | – | Active | – | – | – |
| C[C@H]1O[C@H](O[C@H]2[C@H](O)[C@@H](O)[C@@H](O[C@H]3[C@H](O)[C@@H](O)C(O)O[C@@H]3CO)O[C@@H]2CO)[C@H](O)[C@@H](O)[C@@H]1N[C@H]1C=C(CO)[C@@H](O)[C@H](O)[C@H]1O (stereo partly specified) [ACARBOSE] | 586 µM | – | 151 µM | – | Active |
